Columns and labels:
[1] = tested on: sulfate reducing bacteria (SRB); test: Sulfate reducing bacteria serial dilution culture (Intertek SRB media); assay type: cell-based; conditions: produced water, Example 17, 30 min contact, no grow back
[2] = Jar test water parameters (hardness, calcium, magnesium, chloride, sodium, aluminum, iron, TSS, turbidity); conditions: produced water, Example 17; for Magnesium (mg/L as CaCO3): untreated 170; for Calcium (mg/L as CaCO3): untreated 1080; for Hardness (mg/L as CaCO3): untreated 1250
Method: The water sample was thoroughly mixed and 500 mL dispensed into 1 L beakers to conduct tests using a Phipps and Bird programmable jar tester. The jar tester was programmed for a rapid mix of high shear force at 295 rpm impeller speed for 1.25 minutes, followed by a low shear impeller speed of 25 rpm for 10 minutes to promote coalescence and floc formation. All tests were conducted at room temperature, 20-25° C. The 500 mL water samples were dosed with varying amounts of sodium peracetate oxidant solution during the rapid mix from an oxidant solution that was 2.1% wt/vol sodium peracetate (1.6% wt/vol measured as PAA). Also during the rapid mix the jar samples were dosed with 0.5 to 1 mg/L of an anionic polymer dispersion as a coalescence and floc aid.
Example 17: Oxidative clarification of suspended solids and metals. A produced water sample originating from the Denver-Julesburg basin formation in CO, USA contained suspended and dissolved solids, bacteria and up to about 2% salinity. The water sample was thoroughly mixed and 500 mL dispensed into 1 L beakers to conduct tests using a Phipps and Bird programmable jar tester. The jar tester was programmed for a rapid mix of high shear force at 295 rpm impeller speed for 1.25 minutes followed by a low shear impeller speed of 25 rpm for 20 minutes to promote floc formation and allow for pH and ORP monitoring prior to settling of solids. All tests were conducted at room temperature, 18-21° C. The 500 mL water samples were dosed with varying amounts of sodium peracetate oxidant solution during the rapid mix from an oxidant solution that was 2.2% wt/vol sodium peracetate (1.7% wt/vol measured as PAA). In some cases, during the rapid mix the jar samples were dosed with up to 5 mg/L of an anionic polymer dispersion as a floc aid.

bacteria = test: ATP concentration (LuminUltra metabolic ATP measurement) in oxidant-treated water; assay type: cell-based
[3] = tested on: acid producing bacteria (APB); test: Acid producing bacteria serial dilution culture (Intertek APB media); assay type: cell-based; conditions: produced water, Example 17, 30 min contact, no grow back
Method: The water's color rapidly turned orange and the ORP increased to about 700 mV vs SHE. During the first 5 to 10 minutes of slow mixing there was some floc formation. After 20 minutes stirring was ceased and the flocculated solids were allowed to settle, however the water remained hazy orange. […] The ATP concentration was reduced by about 93% from the untreated water concentration and the bioassay results indicated at least 4 log reductions in acid producing and sulfate reducing bacteria relative to the untreated water's ATP concentration (approximately 1.8×10^6 microbial equivalents per mL).
Water parameters were measured by a variety of methods. The pH was measured using a high sodium electrode (Oakton model 35805-05) with three point calibration and automatic temperature correction. The ORP (oxidative-reductive potential) of solutions was measured using an Oakton model 35805-15 ORP probe calibrated to the standard hydrogen electrode (SHE) using Thermo/Orion ORP standard 967901. Sodium ion concentration was measured using a Cole-Parmer ion selective electrode, EW-27504-30, with two point calibration of a sodium standard solution of NaCl. Chloride ion concentration was measured using a Cole-Parmer ion selective electrode, SC-27504-08, with two point calibration of a chloride standard solution of NaCl. All measurements using HACH methods were measured using a HACH DR900 colorimeter. Calcium, magnesium and total hardness concentrations were measured using HACH method 8030. Sulfate concentration was measured using HACH method 10248. Aluminum concentration was measured using HACH method 8012. Iron concentration was measured using HACH method 10249 modified with a longer reaction time to minimize interferences from organic impurities. Total suspended solids (TSS) concentration was measured using HACH method 8006 modified for smaller volumes. Turbidity was measured using HACH method 8237. […] Acid producing bacteria (ABP) and sulfate reducing bacteria (SRB) cell culture concentrations were measured with standard 1 mL serial dilutions using Intertek APB and SRB culture media, 1% salinity.

[4] = Half life and attenuation of oxidant solution in clean water; assay type: physicochemical
Method: Measurement of Sodium Peracetate Concentration: Measurement of sodium peracetate concentration is conducted by using a peroxide iodometric titration procedure from HACH. A known, volumetric aliquot of the peracetate-containing solution is diluted with a volume of distilled water where the total volume is convenient for titration between about 5 and 25 mL in a small glass beaker or flask. The diluted peracetate solution is stirred and 1 mL of ammonium molybdate reagent (HACH reagent 1933-32) is added. Sulfuric acid in the reagent converts the peracetate to peracetic acid. The contents of one Sulfite 1 Reagent packet (HACH reagent 2203-99) is added to the prepared solution and stirred for 5 minutes. The purple color that develops is titrated to a colorless endpoint with a standard sodium thiosulfate solution (for example, 0.0250 N sodium thiosulfate solution). The peroxide concentration is calculated based on the volume of the aliquot of peracetate-containing solution, the volume and concentration of sodium thiosulfate solution, two electron equivalents consumed for each molecule of peroxide and the molecular weight of the peroxide being measured.
Example 8: Half Life and Attenuation of Oxidant Solution: The minimum attenuation rate or degradation rate of the sodium peracetate oxidant solution was measured experimentally in clean water conditions. A sodium peracetate oxidant solution containing an initial concentration of 7.5% (wt/vol) sodium peracetate with an initial pH of about 10.1 was prepared by dissolving 0.34 g of sodium hydroxide (98%) in 10.0 mL of 2.85% wt/vol hydrogen peroxide (topical solution) in a 50 mL beaker. Then 1.22 g of triacetin (99%) was combined and the mixture rapidly stirred for 1-2 minutes at room temperature. […]
The sodium peracetate concentration was measured over time using the method described in Example 4. Concentrations were accurate to about ±2.4% of the values measured. The pH was measured using a high sodium electrode (Oakton model 35805-05) with three point calibration and automatic temperature correction.

pH of treated water = assay type: physicochemical
Method: Water parameters were measured by a variety of methods. The pH was measured using a high sodium electrode (Oakton model 35805-05) with three point calibration and automatic temperature correction. The ORP (oxidative-reductive potential) of solutions was measured using an Oakton model 35805-15 ORP probe calibrated to the standard hydrogen electrode (SHE) using Thermo/Orion ORP standard 967901. Sodium ion concentration was measured using a Cole-Parmer ion selective electrode, EW-27504-30, with two point calibration of a sodium standard solution of NaCl. Chloride ion concentration was measured using a Cole-Parmer ion selective electrode, SC-27504-08, with two point calibration of a chloride standard solution of NaCl. All measurements using HACH methods were measured using a HACH DR900 colorimeter. Calcium, magnesium and total hardness concentrations were measured using HACH method 8030. Sulfate concentration was measured using HACH method 10248. Aluminum concentration was measured using HACH method 8012. Iron concentration was measured using HACH method 10249 modified with a longer reaction time to minimize interferences from organic impurities. Total suspended solids (TSS) concentration was measured using HACH method 8006 modified for smaller volumes. Turbidity was measured using HACH method 8237. ATP (adenosine triphosphate) concentration was measured using the LuminUltra 2nd Generation metabolic ATP measurement technology with the LuminUltra Quench Gone-Organic Modified sampling method, a PhotonMaster Luminometer and LumiCalc software. Acid producing bacteria (ABP) and sulfate reducing bacteria (SRB) cell culture concentrations were measured with standard 1 mL serial dilutions using Intertek APB and SRB culture media, 1% salinity.

[5] = Gel breaking of guar gum mixture; conditions: for Viscosity at 2 Hour Contact Time: 10 g/L guar gum, 35-40 °C
Method: Example 15: Gel Breaking ability for well squeeze to remove “polymer damage”. The use of the sodium peracetate oxidant formulation was tested for the depolymerization and break down of guar gum. […] The guar mixture was made by rapidly mixing 10 g/L food grade guar gum powder into a 10 g/L sodium chloride solution in distilled water. The blended mixture was heated to about 35-40° C. in a heated water bath for at least one hour to fully hydrate the guar. The mixture appeared translucent with fine, milky white suspended solids. […] The first was a control sample to which no oxidant was added. The remaining samples had increasing amounts of sodium peracetate oxidant added to them. The oxidant was prepared as described in Example 4 and the pH was adjusted to about 9.1 with sodium bisulfate before use. The oxidant was rapidly mixed with the guar mixture resulting in a pale yellow color. The mixtures were placed in a water bath at about 35-40° C. and the yellow color gradually faded away over the next hour. After two hours the samples were cooled to room temperature.

[6] = 29 mg/L, untreated >>10,000 cells/mL
[7] = produced water, Example 17, 52 mg/L
[8] = produced water, Example 18, 0.30 mmol/L oxidant

**Q.** For `CC(=O)O[O-].[Na+]` [sodium peracetate oxidant, sodium peracetate], which “SRB (cells/mL and log reduction)” value ([1]; 29 mg/L plus 5 mg/L floc aid) is on record?
**A.** 5 log (no grow

**Q.** And the “SRB (cells/mL and log reduction)” value [1, 6]?
**A.** 5 log (no grow

**Q.** What about the “SRB (cells/mL and log reduction)” value ([1]; 52 mg/L) of the same compound?
**A.** 5 log (no grow

**Q.** What about the “Magnesium (mg/L as CaCO3)” value ([2]; 29 mg/L plus 5 mg/L floc aid) of the same compound?
**A.** 200 mg/L as CaCO3

**Q.** And the “Calcium (mg/L as CaCO3)” value ([2]; 29 mg/L plus 5 mg/L floc aid)?
**A.** 940 mg/L as CaCO3

**Q.** What about the “Hardness (mg/L as CaCO3)” value ([2]; 29 mg/L plus 5 mg/L floc aid) of the same compound?
**A.** 1140 mg/L as CaCO3

**Q.** And the “Magnesium (mg/L as CaCO3)” value ([2]; 52 mg/L)?
**A.** 200 mg/L as CaCO3

**Q.** And the “Calcium (mg/L as CaCO3)” value ([2]; 52 mg/L)?
**A.** 1020 mg/L as CaCO3

**Q.** And the “Hardness (mg/L as CaCO3)” value ([2]; 52 mg/L)?
**A.** 1220 mg/L as CaCO3

**Q.** And the “rate of reduction of ATP concentration” value (bacteria; early flowback water, Example 19, 1.7 mmol/L, ATP at 10, 30 and 60 minutes contact time)?
**A.** The sodium peracetate oxidant treated flowback water had a slightly greater rate of reduction of ATP concentration than chlorine dioxide.

**Q.** What about the “ATP reduction at 30 min CT” value (bacteria; produced water, Example 17, 29 mg/L) of the same compound?
**A.** 99.0%

**Q.** What about the “ATP reduction at 30 min CT” value (bacteria; produced water, Example 17, 29 mg/L plus 5 mg/L floc aid) of the same compound?
**A.** 99.6%

**Q.** What about the “ATP reduction at 30 min CT” value (bacteria; produced water, Example 17, 29 mg/L plus 5 mg/L floc aid, listed as Sodium Peracetate Oxidant) of the same compound?
**A.** 99.6%

**Q.** And the “ATP (pg/mL), at 30 min CT” value (bacteria; produced water, Example 17, 29 mg/L plus 5 mg/L floc aid, untreated 135)?
**A.** 0.6 pg/mL

**Q.** And the “ATP reduction at 30 min CT” value (bacteria; produced water, Example 17, 29 mg/L, listed as Sodium Peracetate Oxidant)?
**A.** 99.0%

**Q.** And the “ATP (pg/mL), at 30 min CT” value (bacteria; produced water, Example 17, 29 mg/L, untreated 135)?
**A.** 1.4 pg/mL

**Q.** And the “ATP reduction at 30 min CT” value (bacteria; [7])?
**A.** 99.3%

**Q.** What about the “ATP reduction at 30 min CT” value (bacteria; produced water, Example 17, 52 mg/L, listed as Sodium Peracetate Oxidant) of the same compound?
**A.** 99.3%

**Q.** What about the “ATP (pg/mL), at 30 min CT” value (bacteria; produced water, Example 17, 52 mg/L, untreated 135) of the same compound?
**A.** 0.9 pg/mL

**Q.** And the “ATP (pg/mL), at 30 min CT” value (bacteria; [8])?
**A.** 1.4 pg/mL

**Q.** What about the “ATP reduction at 30 min CT” value (bacteria; [8]) of the same compound?
**A.** 99.0%

**Q.** And the “ATP (pg/mL), at 15 min CT” value (bacteria; produced water, Example 18, 0.30 mmol/L oxidant, untreated 135)?
**A.** 4.1 pg/mL

**Q.** What about the “APB (cells/mL and log reduction)” value ([3]; 29 mg/L plus 5 mg/L floc aid) of the same compound?
**A.** 5 log (no grow

**Q.** And the “APB (cells/mL and log reduction)” value [3, 6]?
**A.** 5 log (no grow

**Q.** And the “APB (cells/mL and log reduction)” value ([3]; 52 mg/L)?
**A.** 5 log (no grow

**Q.** What about the half-life ([4]; 7.5% (wt/vol) solution, 25 °C, clean water, initial pH 10.1) of the same compound?
**A.** 1.33 to 1.42 h

**Q.** And the “final pH of solution” value ([4]; 7.5% solution, 25 °C, at 265 min, initial pH 10.1)?
**A.** 7.3

**Q.** What about the concentration of oxidant ([4]; within about 6 days' time) of the same compound?
**A.** less than 5 mg/L

**Q.** And the pH (pH of treated water; early flowback water, Example 19, 1.7 mmol/L oxidant, contact time 3 minutes)?
**A.** 6.83

**Q.** And the pH (pH of treated water; early flowback water, Example 19, 1.7 mmol/L oxidant, contact time 13 minutes)?
**A.** 6.87

**Q.** And the pH (pH of treated water; early flowback water, Example 19, 1.7 mmol/L oxidant, contact time 35 minutes)?
**A.** 6.88

**Q.** What about the pH (pH of treated water; early flowback water, Example 19, 1.7 mmol/L oxidant, contact time 90 minutes) of the same compound?
**A.** 6.89

**Q.** What about the pH (pH of treated water; produced water (Denver-Julesburg), Example 17, 29 mg/L) of the same compound?
**A.** 6.2

**Q.** What about the pH (pH of treated water; produced water, Example 17, 29 mg/L plus 5 mg/L floc aid (Polymer B-40)) of the same compound?
**A.** 6.3

**Q.** What about the pH (pH of treated water; [7]) of the same compound?
**A.** 5.9

**Q.** And the pH (pH of treated water; [8])?
**A.** 6.2

**Q.** And the “Viscosity at 2 Hour Contact Time” value ([5]; oxidant conc. 65 mg/L)?
**A.** same as initial

**Q.** And the “Viscosity at 2 Hour Contact Time” value ([5]; oxidant conc. 220 mg/L)?
**A.** slightly reduced

**Q.** What about the “Viscosity at 2 Hour Contact Time” value ([5]; oxidant conc. 440 mg/L) of the same compound?
**A.** very reduced

**Q.** And the “preservation of guar mixture on standing at room temperature” value ([5]; about 65 mg/L oxidant, control lost viscosity overnight, biofilm after a week)?
**A.** retained its original viscosity and milky color for at least a week

From patent US11827543B2, “Method for continuous supply of superoxide-containing peracetate oxidant solution” (Clean Chemistry, Inc., priority 2014, dated 2023)
